A short description of experiment [1]: Luminescence Cell-Based Dose Confirmation HTS to Identify Inhibitors of Platelet Dense Granule Release. [Related pubchem assays: 1663 (Primary HTS), 1678 (Summary of Project)]. The format is functional.
For experiment [2], the target named is Luciferin 4-monooxygenase (Photinus pyralis, UniProt P08659). Briefly: inhibition of purified Photinus pyralis luciferase – biochemical, luminescence, dose response (AID 1891).
Another experiment deals with T1, Cysteine protease ATG4B (Homo sapiens, UniProt Q9Y4P1).
T1 sequence (Q9Y4P1 whole entry): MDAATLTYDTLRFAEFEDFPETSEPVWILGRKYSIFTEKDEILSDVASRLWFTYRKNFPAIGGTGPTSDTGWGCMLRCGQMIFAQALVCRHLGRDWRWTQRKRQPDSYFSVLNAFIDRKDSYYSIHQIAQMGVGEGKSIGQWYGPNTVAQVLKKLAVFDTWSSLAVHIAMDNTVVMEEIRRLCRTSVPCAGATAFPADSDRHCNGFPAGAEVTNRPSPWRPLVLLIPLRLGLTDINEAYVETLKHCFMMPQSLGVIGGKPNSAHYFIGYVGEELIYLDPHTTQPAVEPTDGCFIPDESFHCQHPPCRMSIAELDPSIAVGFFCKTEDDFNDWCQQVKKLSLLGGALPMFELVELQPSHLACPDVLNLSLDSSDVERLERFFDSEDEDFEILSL
The format is functional.

A further experiment concerns the target Phospholipase A2 (Homo sapiens, UniProt P04054). The format is functional.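 Further: confirmatory dose-response counterscreen on phospholipase A2, testing hits that came from an ultra-high-throughput screen for ATG4B inhibitors.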
Experiment [3] can be described thus: nonselective StAR promoter luciferase inhibitors – cell-based, luminescence, luciferase reporter, counter-screen for LRH-1 inverse agonist project, dose response (AID 651969). The class given is functional. Background: A reporter such as luciferase makes a cellular process visible.
Experiment [4] concerns the target Nuclear receptor subfamily 5 group A member 2 (Homo sapiens, UniProt O00482). The format is functional, cell-based.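 Further: HEK293T cells transfected with LRH-1 and a StAR promoter luciferase reporter; potency for inhibitors that lower LRH-1 driven reporter light.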
The target in a further experiment is Steroidogenic factor 1 (Homo sapiens, UniProt Q13285). Briefly: Counterscreen for inverse agonists of the liver receptor homolog-1 (LRH-1; NR5A2): Luminescence-based cell-based high throughput dose response assay to identify inverse agonists of the Steroidogenic Factor 1 Nuclear Receptor (SF1; NR5A1). The format is functional. A general note: The purpose of a counterscreen is to sort out artefacts and off-target activity.
Sequence of Steroidogenic factor 1 (Q13285 whole entry): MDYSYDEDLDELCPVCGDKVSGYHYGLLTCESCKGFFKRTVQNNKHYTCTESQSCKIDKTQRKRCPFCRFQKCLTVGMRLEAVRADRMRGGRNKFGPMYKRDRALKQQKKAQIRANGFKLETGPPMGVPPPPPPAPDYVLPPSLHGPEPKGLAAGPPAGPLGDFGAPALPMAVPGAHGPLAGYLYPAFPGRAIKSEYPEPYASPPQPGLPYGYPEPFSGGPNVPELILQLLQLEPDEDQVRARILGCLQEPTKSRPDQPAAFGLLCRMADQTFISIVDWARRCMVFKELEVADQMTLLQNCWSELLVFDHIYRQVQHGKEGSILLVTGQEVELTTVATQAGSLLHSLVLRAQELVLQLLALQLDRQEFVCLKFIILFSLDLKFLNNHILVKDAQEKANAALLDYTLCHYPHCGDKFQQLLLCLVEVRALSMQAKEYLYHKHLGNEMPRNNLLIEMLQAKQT

A further experiment has as its target Protein Wnt-3a (Mus musculus, UniProt P27467). In words: antagonism of Wnt3a pathway luciferase reporter – Wnt-LIGHT cells, luminescence, selectivity assay for Gli-SUFU antagonist project, dose response (AID 651570).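 Further: Wnt-LIGHT reporter cells stimulated with conditioned medium from Wnt3a-producing cells.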 The class given is functional. The note with it: read-out: IC50_Mean.
Experiment [5] in a line: DRD fibroblast viability loss – cell-based, non-viral oncogenic, luminescence, dose response (AID 1934). The class given is functional. The note with it: Homo sapiens.
Another experiment deals with Vero. In words: cells. The format is functional. The note with it: Chlorocebus sabaeus.
Experiment [6] relates to BJ. In words: growth inhibition of engineered Ras-driven BJ cells – cell-based, alamar blue fluorescence, cherrypicked samples, dose response (AID 2631).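 Further: confirmatory dose-response assay in RAS-dependent BJ fibroblasts engineered with TERT, LT and ST, with cytotoxicity read by fluorescence.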 The format is functional. The note with it: Homo sapiens. A general note: Alamar Blue is a resazurin reagent that responds to reducing activity.
Experiment [7] relates to BJ. In words: BJ-TERT-LT-ST fibroblast viability loss – cell-based, RAS-independent, luminescence, dose response (AID 1935).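 Further: BJ fibroblasts immortalized with TERT plus LT and ST oncogenes.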 The format is functional. Conditions: Homo sapiens.
For experiment [8], the system named is BJ. Briefly: cells. The format is functional, cell-based. Conditions: Homo sapiens.
The subject of experiment [9] is BJ. In words: BJ-TERT fibroblast viability loss – cell-based, RAS-independent, luminescence, dose response (AID 1933). Conditions: Homo sapiens. The format is functional.
For experiment [10], the target named is Tyrosine-protein phosphatase non-receptor type 11 (Homo sapiens, UniProt Q06124). In words: PTPN11 enzyme inhibitors – biochemical, selectivity assay for STEP inhibitor project, dose response (AID 602367). The format is functional. Conditions: read-out: IC50_Mean.
Sequence of Tyrosine-protein phosphatase non-receptor type 11 (Q06124 whole entry): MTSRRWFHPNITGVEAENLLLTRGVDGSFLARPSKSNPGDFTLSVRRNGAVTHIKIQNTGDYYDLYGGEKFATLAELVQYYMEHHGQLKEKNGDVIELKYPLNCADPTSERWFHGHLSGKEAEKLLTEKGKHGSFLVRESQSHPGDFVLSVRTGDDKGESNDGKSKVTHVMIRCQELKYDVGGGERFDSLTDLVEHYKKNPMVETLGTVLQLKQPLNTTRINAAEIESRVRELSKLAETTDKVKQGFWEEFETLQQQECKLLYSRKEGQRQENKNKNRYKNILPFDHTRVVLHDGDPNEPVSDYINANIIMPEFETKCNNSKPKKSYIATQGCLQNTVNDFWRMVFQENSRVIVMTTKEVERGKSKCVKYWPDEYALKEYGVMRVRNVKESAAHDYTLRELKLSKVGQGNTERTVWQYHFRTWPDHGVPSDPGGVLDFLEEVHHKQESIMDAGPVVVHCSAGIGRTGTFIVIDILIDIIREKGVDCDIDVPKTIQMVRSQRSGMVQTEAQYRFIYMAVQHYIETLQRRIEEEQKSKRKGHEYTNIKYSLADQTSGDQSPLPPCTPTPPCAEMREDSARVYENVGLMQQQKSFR
Experiment [11] deals with Dual specificity protein phosphatase 3 (Homo sapiens, UniProt P51452). Briefly: VHR phosphatase inhibition, dose response, selectivity assay for STEP inhibitor project, biochemical (AID 602374). The class given is functional. The note with it: read-out: IC50_Mean.
Sequence of Dual specificity protein phosphatase 3 (P51452 whole entry): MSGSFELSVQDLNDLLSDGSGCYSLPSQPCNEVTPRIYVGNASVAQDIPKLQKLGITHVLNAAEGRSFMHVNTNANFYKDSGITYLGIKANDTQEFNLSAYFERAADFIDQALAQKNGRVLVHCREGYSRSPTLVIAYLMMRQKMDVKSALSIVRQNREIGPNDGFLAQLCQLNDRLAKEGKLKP
Experiment [12] deals with Tyrosine-protein phosphatase non-receptor type 5 (Homo sapiens, UniProt P54829). In words: PTPN5 enzyme inhibition – biochemical, fluorescence intensity, uHTS hits, confirmation (AID 602372). The note with it: read-out: IC50_Mean. The class given is functional.
Sequence of Tyrosine-protein phosphatase non-receptor type 5 (P54829 whole entry): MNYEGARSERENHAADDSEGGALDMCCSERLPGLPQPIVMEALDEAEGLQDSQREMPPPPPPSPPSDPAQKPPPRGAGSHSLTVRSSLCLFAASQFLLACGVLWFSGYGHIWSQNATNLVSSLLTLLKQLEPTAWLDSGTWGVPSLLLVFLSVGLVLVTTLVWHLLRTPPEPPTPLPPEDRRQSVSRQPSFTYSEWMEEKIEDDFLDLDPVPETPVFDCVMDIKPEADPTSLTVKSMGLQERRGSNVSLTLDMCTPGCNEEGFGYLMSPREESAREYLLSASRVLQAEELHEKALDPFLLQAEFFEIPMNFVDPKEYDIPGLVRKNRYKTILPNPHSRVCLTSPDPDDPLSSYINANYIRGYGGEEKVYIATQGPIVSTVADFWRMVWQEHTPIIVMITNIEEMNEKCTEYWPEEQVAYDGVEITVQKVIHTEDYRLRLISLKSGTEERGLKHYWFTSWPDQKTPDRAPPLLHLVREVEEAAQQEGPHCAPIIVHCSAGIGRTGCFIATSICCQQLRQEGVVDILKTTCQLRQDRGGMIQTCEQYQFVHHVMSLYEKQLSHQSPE

Active and inactive are the calls of the source.

Sequence of Nuclear receptor subfamily 5 group A member 2 (O00482 whole entry): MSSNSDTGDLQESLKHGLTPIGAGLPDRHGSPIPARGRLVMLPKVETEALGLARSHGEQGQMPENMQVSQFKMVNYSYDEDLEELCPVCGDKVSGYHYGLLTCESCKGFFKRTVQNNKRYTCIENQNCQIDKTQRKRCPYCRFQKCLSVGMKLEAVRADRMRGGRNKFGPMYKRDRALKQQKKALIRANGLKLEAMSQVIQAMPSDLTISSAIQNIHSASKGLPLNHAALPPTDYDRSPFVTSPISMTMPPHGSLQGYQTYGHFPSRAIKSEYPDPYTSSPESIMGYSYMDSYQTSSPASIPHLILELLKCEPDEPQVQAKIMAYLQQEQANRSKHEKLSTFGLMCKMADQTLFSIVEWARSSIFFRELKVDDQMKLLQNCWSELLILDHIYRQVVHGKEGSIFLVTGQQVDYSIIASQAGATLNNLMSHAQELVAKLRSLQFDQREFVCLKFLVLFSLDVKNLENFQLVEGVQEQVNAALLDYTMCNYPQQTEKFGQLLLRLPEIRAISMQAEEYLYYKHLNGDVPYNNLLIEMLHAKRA
Sequence of Luciferin 4-monooxygenase (P08659 whole entry): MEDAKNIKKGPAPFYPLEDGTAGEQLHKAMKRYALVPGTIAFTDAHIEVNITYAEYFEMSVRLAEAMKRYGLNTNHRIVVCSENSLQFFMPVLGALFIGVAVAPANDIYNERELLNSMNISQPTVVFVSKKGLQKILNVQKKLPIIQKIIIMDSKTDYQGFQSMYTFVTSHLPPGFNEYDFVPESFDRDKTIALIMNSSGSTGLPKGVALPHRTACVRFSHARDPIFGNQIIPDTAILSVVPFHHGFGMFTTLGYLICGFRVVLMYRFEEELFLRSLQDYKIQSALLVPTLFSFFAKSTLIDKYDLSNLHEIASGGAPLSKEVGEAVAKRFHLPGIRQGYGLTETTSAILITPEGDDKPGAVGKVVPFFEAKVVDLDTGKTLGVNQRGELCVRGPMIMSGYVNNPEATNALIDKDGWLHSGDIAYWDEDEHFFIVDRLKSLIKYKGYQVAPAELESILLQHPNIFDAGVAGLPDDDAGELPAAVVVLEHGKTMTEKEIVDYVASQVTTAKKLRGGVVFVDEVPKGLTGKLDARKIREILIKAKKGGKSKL
Sequence of Phospholipase A2 (P04054 whole entry): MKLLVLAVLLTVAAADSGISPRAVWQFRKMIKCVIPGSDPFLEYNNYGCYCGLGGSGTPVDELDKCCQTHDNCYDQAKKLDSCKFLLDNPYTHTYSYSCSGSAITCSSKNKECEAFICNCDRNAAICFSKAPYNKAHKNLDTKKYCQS
Sequence of Protein Wnt-3a (P27467 whole entry): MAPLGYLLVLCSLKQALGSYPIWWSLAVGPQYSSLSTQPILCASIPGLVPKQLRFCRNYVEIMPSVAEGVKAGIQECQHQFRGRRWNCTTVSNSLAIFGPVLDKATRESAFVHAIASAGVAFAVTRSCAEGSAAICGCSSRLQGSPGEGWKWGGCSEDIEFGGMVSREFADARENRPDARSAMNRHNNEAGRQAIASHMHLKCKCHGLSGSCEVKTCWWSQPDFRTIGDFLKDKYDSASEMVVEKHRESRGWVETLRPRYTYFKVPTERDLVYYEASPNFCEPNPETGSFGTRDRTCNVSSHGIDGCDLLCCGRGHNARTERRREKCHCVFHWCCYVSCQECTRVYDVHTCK

Take `Cc1cccc(OCC(=O)Nc2ccccc2-c2ccccc2)c1`: the values for the EC50 in [1] and in experiment [2] were > 112 µM (not active) and 73.8 µM (active), respectively. In addition, the IC50 at Cysteine protease ATG4B is 11.5 µM (active); on Phospholipase A2 it was 11.9 µM (active).
As for `COC(=O)c1ccc(NC(=O)CN2CCN(c3ccc(Cl)cc3)CC2)cc1`, the values for the IC50 (in experiment [3]; in [4]; at Steroidogenic factor 1) were 35.9 µM (inactive), 35.9 µM (inactive) and 30.7 µM (inactive), respectively.
As to `O=[N+]([O-])c1ccc(N2CCN(C(=S)NCc3ccc(Cl)cc3)CC2)cc1`, at Protein Wnt-3a, the IC50 is 5.08 µM (active).
`Cc1c(NC(=S)NC(=O)c2ccc(Cl)cc2)c(=O)n(-c2ccccc2)n1C`: the IC50 was 35.9 µM (inactive) in experiment [3], 12 µM (inactive) in [4] and 35.9 µM (inactive) on Steroidogenic factor 1.
For the molecule `COc1ccc(OC)c(Nc2nc(N)nc(CCl)n2)c1`, the concentration giving a half-maximal response (EC50) in experiment [5] was 2.16 µM (active); with BJ [6], 15.7 µM (active); in the experiment on BJ [7] it was > 150 µM (inconclusive); with BJ [8] it was 4.66 µM (inconclusive); in the experiment with BJ [9], 0.258 µM (active). In addition, the CC50 in the experiment on Vero is 7.93 µM (active).
In the case of `COCCCN(C(S)=Nc1c(C)cc(C)cc1C)C(C)c1ccccn1` (stereo not given), the IC50 in experiment [10] was 15.1 µM (active); in experiment [11] it was 4.94 µM (active); in experiment [12] it was > 80 µM (inactive).

As a reminder, the EC50 is the concentration at which the effect is half-maximal. By CC50 is commonly meant the concentration that lowers cell viability or growth by half.
